Results: US20080175889A1, “METHOD AND COMPOSITION FOR COATING WOUNDS AND PROTECTING SKIN USING A POLYETHER POLYURETHANE SOLUTION” (priority 2007, published 2008)

Tests used:
[1] = cited from earlier work
[2] = published literature; cited from earlier work
[3] = tested on: rat; details: cited from earlier work
[4] = TWA; cited from earlier work
[5] = tested on: animal's tissue; details: solvent alone or containing dissolved PEPU polymer; compared to THF

SMILES | amount of solvent that can dissolve in water [1] | carcinogenicity / teratogenicity [2] | genotoxicity [2] | skin irritation [2] | LD-50 (rats) ([3]; rats) [mg/kg] | OSHA Permissible Exposure Limit and NIOSH Recommended Exposure limit [4] [ppm] | amount of water that can dissolve in the solvent ([1]; water in solvent) [%] | LD-50 ([3]; rat model, reported for both skin contact and inhalation) | penetration into an animal's tissue after applying the solvent onto the skin [5]
C1CCOC1 [THF, tetrahydrofuran] | miscible, in all proportions | not considered a carcinogen or a teratogen | nor is it genotoxic | skin irritant | 890 | 200 | – | – | –
CC1CCCO1 (stereo not shown) [2-MeOX, 2-methyloxolane] | approximately 14 % by weight | – | – | – | – | – | 4 | approximately 6 g/kg | much less 2-MeOX compared to THF solvent can penetrate
